Source: paper PMC6071250 (2018)

Assays:
[1] = test system: anti-AFT B1 aptamer (DNA, aptamer) GTTGGGCACGTGTTGTCTCTCTGTGTCTCGTGCCCTTCGCTAGGCCCACA; experiment: TIRE/LSPR spectral shift; conditions: 3 mM MgCl2, Na+ and K+ (HBB: 120 mM NaCl, 5 mM KCl; PBB: 137 mM NaCl, 2.7 mM KCl); HBB or PBB pH 7.4; stated not to bind; concentration tested not stated; immobilised aptamer
[2] = test system: anti-AFT M1 aptamer (DNA, aptamer) ACTGCTAGAGATTTTCCACAT; experiment: TIRE/LSPR spectral shift; conditions: 3 mM MgCl2, Na+ and K+ (HBB: 120 mM NaCl, 5 mM KCl; PBB: 137 mM NaCl, 2.7 mM KCl); HBB or PBB pH 7.4; stated not to bind; concentration tested not stated; immobilised aptamer

Compound: C[C@@H]1Cc2c(Cl)cc(C(=O)N[C@@H](Cc3ccccc3)C(=O)O)c(O)c2C(=O)O1
- binding [1]: no
- binding [2]: no
